Read-outs that look alike come from different tables or passages of the source.
Legend:
hMAO-B [1] = molecular target: T1, hMAO-B (Homo sapiens, UniProt P27338); test: hMAO-B inhibition, IC50 determination (kynuramine fluorescence); assay type: biochemical; conditions: for Selectivity index (SI) for the MAO-B isoform: ratio (IC50 hMAO-A)/(IC50 hMAO-B)
T1 sequence (P27338 1-520): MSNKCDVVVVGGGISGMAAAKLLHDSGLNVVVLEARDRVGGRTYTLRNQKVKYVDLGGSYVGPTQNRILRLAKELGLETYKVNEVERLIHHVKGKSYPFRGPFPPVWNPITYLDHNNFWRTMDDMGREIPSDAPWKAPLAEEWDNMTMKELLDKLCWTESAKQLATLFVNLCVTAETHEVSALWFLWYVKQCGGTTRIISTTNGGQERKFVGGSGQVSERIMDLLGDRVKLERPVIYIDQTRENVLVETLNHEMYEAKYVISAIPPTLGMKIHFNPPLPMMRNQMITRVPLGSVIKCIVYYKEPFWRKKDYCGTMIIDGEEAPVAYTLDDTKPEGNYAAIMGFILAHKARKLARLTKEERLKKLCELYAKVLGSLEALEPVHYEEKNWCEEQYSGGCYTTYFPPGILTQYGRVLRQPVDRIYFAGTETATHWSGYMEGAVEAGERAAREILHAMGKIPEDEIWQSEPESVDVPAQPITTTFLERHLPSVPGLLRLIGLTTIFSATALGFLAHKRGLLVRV
Description: (§1) The procedure for the measurement of IC50 values for the inhibition of MAO has been reported. The enzyme reactions were prepared to a volume of […] in potassium phosphate buffer at pH 7.4 (100 mM, made isotonic with KCl) and contained kynuramine (50 μM) and the test inhibitors (0.003–100 µM). Stock solutions of the test inhibitors were prepared in DMSO and added to the reactions to yield 4% DMSO. The enzyme reactions were initiated with the addition of recombinant hMAO-A (0.0075 mg protein/mL) or hMAO-B (0.015 mg protein/mL) and incubated for 20 min at 37 °C. At endpoint, the reactions were terminated with 80 µL sodium hydroxide (2N) and the fluorescence of 4-hydroxyquinoline, the oxidation product of kynuramine, was measured (λex = 310; λem = 400 nm)[33]. 4-Hydroxyquinoline was quantified with a calibration curve (0.047–1.56 μM) and the rate of 4-hydroxyquinoline formation was fitted to the one site competition model of the Prism 5 software package (GraphPad). From the resulting sigmoidal plots, the IC50 values were estimated. All enzyme reactions were carried out in triplicate and IC50 values are given as the mean ± standard deviation (SD).

hMAO-B [2] = molecular target: T1, hMAO-B; test: Lineweaver-Burk plots, mode of inhibition and Ki; assay type: biochemical
Description: To construct Lineweaver–Burk plots, the enzyme reactions were carried out to a volume of 500 µL and the concentration of MAO-B was 0.015 mg protein/mL. All enzyme reactions and activity measurements were carried out as described above for the dialysis experiments. The first plot was constructed in the absence of inhibitor, while the remaining five plots were constructed in the presence of the following concentrations: ¼ × IC50, ½ × IC50, ¾ × IC50, 1 × IC50 and 1¼ × IC50. For each line, kynuramine was used at concentrations of 15–250 μM. The Ki value was estimated from a plot of the slopes of the Lineweaver–Burk plots versus inhibitor concentration (x-axis intercept equals –Ki).
To provide further support for the reversibility of MAO-B inhibition by compounds 4 and 37, a set of Lineweaver–Burk plots was constructed for each inhibitor at the following inhibitor concentrations: ¼ × IC50, ½ × IC50, ¾ × IC50, 1 × IC50, and 1¼ × IC50. The substrate, kynuramine, was used at 15–250 µM for each line. […] The lines of the plots intersect on the y-axis and a replot of the slopes versus inhibitor concentration yields a linear line, from which the enzyme-inhibitor dissociation constant (Ki) was estimated (Ki = −x-axis intercept).

hMAO-B [3] = molecular target: T1, hMAO-B; test: Reversibility of MAO-B inhibition by dialysis; assay type: biochemical
Description: Stock solutions of the test compounds were prepared in DMSO and added to the incubations to yield 4% DMSO. The samples were dialyzed for 24 h at 4 °C in 80 ml of dialysis buffer using Slide-A-Lyzer® dialysis cassettes (Thermo Scientific) with a molecular weight cut-off of 10,000 and a sample volume capacity of 0.5–3 ml. The dialysis buffer was replaced at 3 and 7 h after the start of dialysis. Following dialysis, the dialysis samples were diluted twofold with the addition of kynuramine to yield a kynuramine concentration and inhibitor concentration of 50 µM and 2 × IC50, respectively. The reactions (500 µL) were incubated for 20 min at 37 °C and terminated with NaOH (400 μL, 2 N) and water (1000 µL). The fluorescence of 4-hydroxyquinoline in these samples was measured as described for the IC50 determination above. […] Undialysed mixtures of MAO-B and the test inhibitors were maintained at 4 °C for 24 h and diluted and assayed as above. All reactions were carried out in triplicate and the residual enzyme catalytic rates are expressed as mean ± SD.
Reversibility of MAO inhibition is an important factor to consider when evaluating the inhibition properties of potential inhibitors. Irreversible MAO inhibitors, particularly of the MAO-A isoform, are associated with dangerous adverse effects such as the cheese reaction, which occurs when irreversible MAO-A inhibitors are taken with tyramine-rich food[51]. […] The samples were diluted twofold and the residual MAO-B activity was measured. For reversible inhibition, dialysis is expected to reverse inhibition by the test inhibitors and restore enzyme activity to the level of the negative control. […] A final experiment consisted of incubations containing MAO-B and tested inhibitors which were not dialyzed, but maintained for 24 h.

[4] = FRAP (ferric reducing antioxidant power) assay
Description: (§2) The FRAP (ferric reducing antioxidant power) assay was carried out as described by Zengin et al.[38]. The sample solution (0.1 ml) was added to the premixed FRAP reagent (2 ml) containing acetate buffer (0.3 M, pH 3.6), 2,4,6-tris(2-pyridyl)-s-triazine (10 mM) in 40 mM HCl, and ferric chloride (20 mM) in a ratio of 10/1/1 (v/v/v). The absorbance of the sample was subsequently recorded at 593 nm after 30 min incubation at room temperature. Both results were expressed as EC50 values, using trolox as a reference drug.

[5] = Phosphomolybdenum assay (PhosphoMo), total antioxidant activity; conditions: concentration at which absorbance was 0.5
Description: The total antioxidant activity of the compounds was evaluated by phosphomolybdenum method according to Zengin et al.[35]. The sample solution (0.3 ml) was combined with 3 ml of reagent solution (0.6 M sulphuric acid, 28 mM sodium phosphate, and 4 mM ammonium molybdate) and the absorbance was recorded at 695 nm after 90 min incubation at 95 °C. The EC50, which is the effective concentration at which the absorbance was 0.5, was calculated for each compound and trolox, as a reference drug.

[6] = DPPH radical scavenging activity
Description: The radical scavenging effect of the compounds using the 1,1-diphenyl-2-picrylhydrazyl (DPPH) radical was estimated according to Zengin et al.[36]. The sample solution (1 ml) was added to 4 ml of a 0.004% solution of DPPH in methanol. The sample absorbance was recorded at 517 nm after 30 min incubation at room temperature in the dark.
(§3) The scavenging activity of the compounds on the ABTS radical cation [ABTS,2,2′-azino-bis(3-ethylbenzothiazoline)-6-sulphonic acid] was measured according to the method of Zengin et al.[37] with slight modification. Briefly, ABTS^+ was produced directly by reacting a 7 mM ABTS solution with 2.45 mM potassium persulphate and allowing the mixture to incubate for 12–16 h in the dark at room temperature. Prior to initiating the assay, the ABTS solution was diluted with methanol to an absorbance of 0.700 ± 0.02 at 734 nm. The sample solution (1 ml) was added to the ABTS^+ solution (2 ml) and mixed, and the sample absorbance was recorded at 734 nm after 30 min incubation at room temperature. The corresponding IC50 value, which is the effective concentration at which 50% of DPPH/ABTS radicals are scavenged, was calculated for each compound and trolox, as a reference drug.

[7] = ABTS radical cation scavenging activity
Description: as §3

[8] = Metal chelating activity on ferrous ions; conditions: ferrozine
Description: Metal chelating activity on ferrous ions was evaluated by the method previously described. Briefly, the sample solution (2 ml) was added to FeCl2 solution (0.05 ml, 2 mM). The reaction was initiated by the addition of 5 mM ferrozine (0.2 ml). Similarly, a blank was prepared by adding the sample solution (2 ml) to FeCl2 solution (0.05 ml, 2 mM) and water (0.2 ml) without ferrozine. Then, the sample and blank absorbance were recorded at 562 nm after incubation for 10 min at room temperature. The absorbance of the blank was subtracted from that of the sample. EDTA was used as a positive control and this property was expressed as IC50 value for each compound.

[9] = Cupric ion reducing activity (CUPRAC)
Description: The cupric ion reducing activity (CUPRAC) was determined according to the method of Zengin et al.[38]. The sample solution (0.5 ml) was added to a premixed reaction mixture containing CuCl2 (1 ml, 10 mM), neocuproine (1 ml, 7.5 mM), and NH4Ac buffer (1 ml, 1 M, pH 7.0). Similarly, a blank was prepared by adding the sample solution (0.5 ml) to a premixed reaction mixture (3 ml) without CuCl2. The absorbances of the sample and blank were subsequently recorded at 450 nm after 30 min incubation at room temperature. The absorbance of the blank was subtracted from that of the sample.
as §2

hMAO-A = molecular target: T2, hMAO-A (Homo sapiens, UniProt P21397); test: hMAO-A inhibition, IC50 determination (kynuramine fluorescence); assay type: biochemical; conditions: recombinant hMAO-A, kynuramine 50 μM, 20 min, 37 °C; read-out: IC50 hMAO-A
T2 sequence (P21397 1-527): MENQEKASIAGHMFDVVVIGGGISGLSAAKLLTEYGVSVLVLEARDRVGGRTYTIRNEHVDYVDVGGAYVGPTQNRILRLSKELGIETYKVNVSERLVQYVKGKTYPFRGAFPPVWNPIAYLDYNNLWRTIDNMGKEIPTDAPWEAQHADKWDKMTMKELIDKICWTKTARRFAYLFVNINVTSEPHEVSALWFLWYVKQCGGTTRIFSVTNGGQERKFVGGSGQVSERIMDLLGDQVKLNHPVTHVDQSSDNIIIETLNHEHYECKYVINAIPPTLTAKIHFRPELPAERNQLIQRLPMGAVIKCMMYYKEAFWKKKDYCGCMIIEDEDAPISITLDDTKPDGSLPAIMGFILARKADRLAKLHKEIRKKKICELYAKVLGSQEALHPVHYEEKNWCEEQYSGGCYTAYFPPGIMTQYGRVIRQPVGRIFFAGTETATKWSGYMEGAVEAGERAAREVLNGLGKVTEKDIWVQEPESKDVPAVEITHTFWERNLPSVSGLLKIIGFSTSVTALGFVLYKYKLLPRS
Description: as §1

[10] = recombinant hMAO-B, kynuramine 50 μM, 20 min, 37 °C, read-out: IC50 hMAO-B

Row | Compound | IC50 (hMAO-B [1]) [µM] | EC50 [4] [µM] | EC50 [5] [µM] | IC50 [6] [µM] | IC50 [7] [µM] | Selectivity index (SI) for the MAO-B isoform (hMAO-B [1]) | IC50 (hMAO-B [1]; [10]) [µM] | IC50 [8] [µM] | EC50 [9] [µM] | melting point [°C] | also measured
1 | Nc1cccc(-c2csc(N/N=C/c3cccs3)n2)c1 [Compound 37] | 2.67 |  |  |  |  |  |  |  |  |  | Ki (hMAO-B [2]): 1.84 µM; Mode of MAO-B inhibition (hMAO-B [2]; Lineweaver-Burk plots): competitive; Reversibility of MAO-B inhibition (hMAO-B [3]; dialysis 24 h): fully reversible; Residual MAO-B activity, undialysed mixtures (hMAO-B [3]; inhibitor at 4 × IC50, not dialyzed, maintained 24 h): 20%; Residual MAO-B activity after dialysis (hMAO-B [3]; inhibitor at 4 × IC50, preincubated 15 min, dialyzed 24 h, relative to negative control): 97%
2 | CC(=NNc1nc(-c2cccc([N+](=O)[O-])c2)cs1)c1ccccc1[N+](=O)[O-] [Compound 13, 1-(1-(2-Nitrophenyl)ethylidene)-2-(4-(3-nitrophenyl)thiazol-2-yl)hydrazine] |  | 450 ± 40 | 3100 ± 360 | 1590 ± 10 | 1040 ± 10 | 3477 | 0.0044 | > 5000 | 400 ± 10 |  | 
3 | CC(=O)c1ccc(C(C)=NNc2nc(-c3cccc([N+](=O)[O-])c3)cs2)cc1 [Compound 31, 1-(1-(4-Acetylphenyl)ethylidene)-2-(4-(3-nitrophenyl)thiazol-2-yl)hydrazine] |  |  |  |  |  | 5.4 | 42.1 |  |  | 205 to 207 | 
4 | CC(=NNc1nc(-c2cccc([N+](=O)[O-])c2)cs1)c1ccc2ccc3ccccc3c2c1 [Compound 34, 1-(4-(3-Nitrophenyl)thiazol-2-yl)-2-(1-(phenanthren-3-yl)ethylidene)hydrazine] |  |  |  |  |  |  | 80.5 |  |  | 255 to 257 | IC50 (hMAO-A): 101 µM
5 | O=[N+]([O-])c1cccc(-c2csc(NN=Cc3ccco3)n2)c1 [Compound 1, 1-(Furan-2-ylmethylene)-2-(4-(3-nitrophenyl)thiazol-2-yl)hydrazine] |  |  |  |  |  |  | 0.095 |  |  | 213 to 215 | 
6 | CC(=NNc1nc(-c2cccc([N+](=O)[O-])c2)cs1)c1ccccc1 [Compound 11, 1-(4-(3-Nitrophenyl)thiazol-2-yl)-2-(1-phenylethylidene)hydrazine] | 0.0071 | 590 ± 10 | 1460 ± 80 | 1280 ± 10 | 1040 ± 10 | 666 |  | > 5000 | 550 ± 20 | 261 to 263 | 
7 | CC(=NNc1nc(-c2cccc([N+](=O)[O-])c2)cs1)c1ccsc1 [Compound 5, 1-(4-(3-Nitrophenyl)thiazol-2-yl)-2-(1-(thiophen-3-yl)ethylidene)hydrazine] | 0.0025 | 520 ± 20 | 1160 ± 30 | 1210 ± 10 | 1050 ± 20 |  |  | > 5000 | 480 ± 30 |  | 

— article PMC6366404, “4-(3-Nitrophenyl)thiazol-2-ylhydrazone derivatives as antioxidants and selective hMAO-B inhibitors: synthesis, biological activity and computational analysis” (Journal of Enzyme Inhibition and Medicinal Chemistry, 2019)
